# Tested on: Human prostate cancer cell lines (PC-3 cells)
# Experiment: Measurement of cell death-inducing activity (Test Example 1)
# Format: cell-based
# Conditions: PC-3, 48 h, 48 hours after addition, tested at 10, 1, 0.1, 0.025 and 0.00625 μmol/L, qualitative evaluation of 10 fields, read-out: Concentration showing the cell death-inducing activity (cell death-inducing rate not less than 40%)
# Outline: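 PC-3 cells seeded at 1×10^5 cells/well and grown 48 h at 37 °C, 5% CO2, then exposed to compound at 10, 1, 0.1, 0.025 and 0.00625 μmol/L (DMSO control) for a further 48 h. Activity was called where cell death-inducing rate was not less than 40%.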
row,Compound,minimal effective concentration
1,CCn1nc(-c2ccc(Cl)cc2OC)cc1COC(=O)Nc1ccc2c(c1)nc1n2CCCC1 [Example 13-119],0.025 µM
2,CCn1nnc2cc(COC(=O)Nc3sc(-c4ccccc4OC)nc3C)ccc21 [Example 9-22],0.025 µM
3,Cc1ccc(-c2nc(C3CC3)c(NC(=O)OCc3ccc4c(c3)ncn4C)s2)c(C)c1 [Example 9-185],0.1 µM
4,CCn1nc(-c2ccc(C)cc2C)cc1NC(=O)OCc1ccc2c(c1)ncn2C [Example 9-234],0.025 µM
5,COc1ccc(-c2cc(NC(=O)OCc3ccc4c(c3)ncn4C)n(C)n2)cc1OC [Example 9-231],1 µM
6,CCc1nc(-c2ccc(Cl)cc2C)sc1NC(=O)OCc1ccc2c(c1)nc(C)n2C [Example 9-376],0.1 µM
7,COc1cc(F)ccc1-c1nc(C)c(NC(=O)OCc2ccc3c(c2)nnn3C)s1 [Example 9-14],0.025 µM
8,CCn1ncc2ccc(COC(=O)Nc3cc(-c4ccc(Cl)cc4OC)nn3C)cc21 [Example 9-298],10 µM
9,COc1ccc(/C=N/NC(=O)c2sc(-c3ccc(F)cc3)nc2C)cc1 [Example 23-67],1 µM
10,Cc1cc(Cl)ccc1-c1nc(C)c(NC(=O)OCc2ccc3c(c2)nc2n3CCC2)s1 [Example 9-107],0.025 µM
11,CCN(Cc1ccc(OC)cc1)NC(=O)c1sc(-c2ccccc2OC)nc1C [Example 16-12],1 µM
12,O=C(N/N=C/c1ccc(O)c(F)c1)c1cc(-c2ccc(Cl)cc2Cl)n[nH]1 [Example 21-18],10 µM
13,"COc1ccc(/C=C/C(=O)Nc2sc(-c3ccc(Cl)cc3OC)nc2C)cc1 [Example 34-1, N-[2-(4-Chloro-2-methoxyphenyl)-4-methylthiazol-5-yl]-3-(4-methoxyphenyl)acrylamide]",1 µM
14,COc1cc(Cl)ccc1-c1nc(C)c(COC(=O)Nc2ccc3c(c2)nc2n3CCCC2)s1 [Example 13-31],1 µM
15,COc1cc(Cl)ccc1-c1cc(COC(=O)Nc2ccc3c(c2)nc2n3CCCC2)sn1 [Example 47-7],0.00625 µM
16,COc1ccc2c(c1)CC/C2=N\NC(=O)c1sc(-c2ccc(Cl)cc2OC)nc1C [Example 23-165],1 µM
17,CCc1nc(-c2ccc(F)cc2OC)sc1NC(=O)OCc1ccc2c(c1)nc1n2CCCC1 [Example 9-352],0.1 µM
18,CCn1cc2cc(NC(=O)OCc3sc(-c4ccc(Cl)cc4C)nc3C)ccc2n1 [Example 13-55],0.025 µM
19,COc1cc(Cl)ccc1-c1cc(COC(=O)Nc2ccc3c(c2)nc2n3CCC2)n(C)n1 [Example 13-108],0.00625 µM
20,Cc1cc(/C=N/NC(=O)c2sc(-c3ccc(Cl)cc3)nc2C(C)(C)C)cc(C)c1O [Example 23-21],10 µM
21,CCn1ncc2cc(COC(=O)Nc3sc(-c4ccc(C)cc4C)nc3C)ccc21 [Example 9-139],0.025 µM
22,"Cc1cccc(-c2c[nH]c(C(=O)N/N=C/c3cc(C)c(O)c(C)c3)c2)c1C [Example 24-1, 4-(2,3-Dimethylphenyl)-1H-pyrrole-2-carboxylic acid [1-(4-hydroxy-3,5-dimethylphenyl)methylidene]hydrazide]",1 µM

row,Compound,minimal effective concentration
1,Cc1cc(Cl)ccc1-c1nc(C(F)(F)F)c(NC(=O)OCc2ccc3c(c2)ncn3C)s1 [Example 9-186],1 µM
2,COc1ccccc1-c1nc(C)c(NC(=O)OCc2ccc3c(c2)nc(C)n3C)s1 [Example 9-74],1 µM
3,CCn1cnc2cc(COC(=O)Nc3sc(-c4ccc(F)cc4C)nc3C)ccc21 [Example 9-63],0.00625 µM
4,COc1cc(C)ccc1-c1nc(C)c(NC(=O)OCc2ccc3c(cnn3C)c2)s1 [Example 9-129],0.00625 µM
5,Cc1ccccc1-c1cc(NC(=O)OCc2ccc3c(c2)ncn3C)n(C)n1 [Example 9-205],1 µM
6,COc1ccccc1-c1nc(C)c(C(=O)N/N=C/c2ccc3c(ccn3C)c2)s1 [Example 23-92],0.025 µM
7,COc1ccc(/C=N/NC(=O)c2cc(-c3ccccc3C)n[nH]2)cc1O [Example 22-3],1 µM
8,"COc1cc(Cl)ccc1-c1nc(C)c(NC(=O)OCc2ccc3c(c2)nc2n3CCSC2)s1 [Example 40-1, [2-(4-Chloro-2-methoxyphenyl)-4-methylthiazol-5-yl]carbamic acid 3,4-dihydro-1H-2-thia-4a,9-diazafluoren-7-ylmethyl ester]",0.025 µM
9,COc1cc(C)ccc1-c1nc(C)c(NC(=O)OCc2ccc3c(c2)nc(C)n3C)s1 [Example 9-77],0.025 µM
10,CCc1nc(-c2ccc(Cl)cc2OC)sc1NC(=O)OCc1ccc2c(c1)nc1n2CCCC1 [Example 9-172],0.025 µM
11,COc1cc(F)ccc1-c1nc(C)c(NC(=O)OCc2ccc3nn(C)cc3c2)s1 [Example 9-143],0.025 µM
12,Cn1nc(-c2ccc(Cl)cc2Cl)cc1NC(=O)OCc1ccc2c(c1)ncn2C [Example 9-207],0.025 µM
13,Cc1cc(Cl)ccc1-c1nc(C)c(COC(=O)Nc2ccc3c(c2)nnn3C)s1 [Example 13-3],0.1 µM
14,COc1cc(F)ccc1-c1nc(C)c(NC(=O)OCc2ccc3c(c2)nc(C)n3C)s1 [Example 9-75],0.1 µM
15,COc1ccccc1-c1nc(C)c(C(=O)N/N=C/c2ccc3ccn(C)c3c2)s1 [Example 23-93],0.1 µM
16,CCn1cc2cc(NC(=O)OCc3sc(-c4ccc(F)cc4Cl)nc3C)ccc2n1 [Example 13-56],0.1 µM
17,Cc1nc(-c2ccc(F)cc2Cl)sc1NC(=O)OCc1ccc2c(c1)ncn2C [Example 9-47],0.025 µM
18,CCc1ccccc1-c1nc(C)c(NC(=O)OCc2ccc3c(cnn3C)c2)s1 [Example 9-125],1 µM
19,CCn1cnc2cc(COC(=O)Nc3cc(-c4ccc(Cl)cc4OC)ns3)ccc21 [Example 45-3],10 µM
20,CCn1nnc2cc(COC(=O)Nc3sc(-c4ccc(F)cc4OC)nc3C)ccc21 [Example 9-23],0.025 µM
21,COc1cc(C)ccc1-c1cc(NC(=O)OCc2ccc3c(c2)nc2n3CCC2)n(C)n1 [Example 9-261],0.025 µM
22,CCn1nc(-c2ccc(C)cc2OC)cc1NC(=O)OCc1ccc2c(c1)ncn2CC [Example 9-229],0.025 µM

row,Compound,minimal effective concentration
1,CCn1nc(-c2ccc(Cl)cc2OC)cc1COC(=O)Nc1ccc2c(c1)nc1n2CCOC1 [Example 13-100],0.00625 µM
2,Cc1nc(-c2ccccc2C(F)(F)F)sc1C(=O)N/N=C/c1ccc(OC(F)F)c(O)c1 [Example 23-118],1 µM
3,"COc1ccc(/C=N/NC(=O)c2cc(-c3ccc(Cl)cc3)oc2C)cc1O [Example 23-166, 5-(4-Chlorophenyl)-2-methylfuran-3-carboxylic acid [1-(3-hydroxy-4-methoxyphenyl)methylidene]hydrazide]",1 µM
4,COc1ccc(/C=N/NC(=O)c2sc(-c3ccc(Cl)cc3OC)nc2C)cc1OC [Example 23-78],0.1 µM
5,COc1ccc(CN(C)NC(=O)c2sc(-c3ccc(F)cc3OC)nc2C)cc1 [Example 16-8],0.1 µM
6,COc1cc(C)ccc1-c1cc(COC(=O)Nc2ccc3c(c2)nc2n3CCC2)n(C)n1 [Example 13-112],0.00625 µM
7,"COc1ccccc1-c1cc(C(=O)N/N=C/c2ccc3c(c2)ncn3C)sn1 [Example 49-2, 3-(2-Methoxyphenyl)isothiazole-5-carboxylic acid[1-(1-methyl-1H-benzimidazol-5-yl)methylidene]hydrazide]",0.025 µM
8,Cc1cc(Cl)ccc1-c1nc(C)c(C(=O)N/N=C/c2cc(C)c(O)c(C)c2)s1 [Example 23-123],0.1 µM
9,COc1ccccc1-c1cc(COC(=O)Nc2ccc3c(c2)nc2n3CCOC2)n(C)n1 [Example 13-95],0.025 µM
10,COc1ccccc1-c1nc(C)c(NC(=O)OCc2ccc3c(c2)nnn3C)s1 [Example 9-13],0.025 µM
11,COc1ccc(/C=N/NC(=O)c2sc(-c3ccccn3)nc2C)cc1O [Example 23-28],1 µM
12,COc1ccc(/C=N/NC(=O)c2sc(-c3cc(C)ccc3C)nc2C)cc1O [Example 23-126],1 µM
13,COc1cc(Cl)ccc1-c1cc(COC(=O)Nc2ccc3c(c2)nc2n3CCCC2)n(C)n1 [Example 13-118],0.00625 µM
14,CCc1ccccc1-c1nc(C)c(NC(=O)OCc2ccc3c(c2)ncn3C)s1 [Example 9-36],0.025 µM
15,"CCn1ncc2cc(/C=N/NC(=O)c3cc(-c4ccccc4OC)ns3)ccc21 [Example 49-7, 3-(2-Methoxyphenyl)isothiazole-5-carboxylic acid[1-(1-ethyl-1H-indazol-5-yl)methylidene]hydrazide]",1 µM
16,CCc1nc(-c2ccc(C)cc2C)sc1NC(=O)OCc1ccc2c(c1)nc1n2CCC1 [Example 9-350],0.1 µM
17,CCCOc1ccccc1-c1nc(C)c(C(=O)N/N=C/c2ccc(OC)c(O)c2)s1 [Example 23-48],0.1 µM
18,CCn1cnc2cc(COC(=O)Nc3sc(-c4ccc(Cl)cc4C)nc3C)ccc21 [Example 9-64],0.00625 µM
19,COc1ccccc1-c1nc(C)c(C(=O)N/N=C/c2ccc(SC)cc2)s1 [Example 23-70],0.1 µM
20,CCc1nc(-c2ccc(C)cc2OC)sc1NC(=O)OCc1ccc2c(cnn2CC)c1 [Example 9-174],0.025 µM
21,CCc1nc(-c2ccc(F)cc2C)sc1NC(=O)OCc1ccc2c(c1)nc1n2CCCC1 [Example 9-355],1 µM
22,Cc1nc(-c2ccccc2Cl)sc1C(=O)N/N=C/c1ccc(OC(F)F)c(O)c1 [Example 23-116],1 µM

# Reference: US9200008B2 (ASKA PHARMACEUTICAL CO., LTD., priority 2010, dated 2015)
